Results taken from paper PMC4865845, “A human genome-wide loss-of-function screen identifies effective chikungunya antiviral drugs” (Nature Communications, 2016).
Read-outs that look alike come from different tables or passages of the source.

Tests used:
[1] = system: HEK-293 cells; test: Cell viability, Cell Proliferation Reagent WST-1; assay type: cell-based, human; details: read-out: WST-1 IC50
Protocol: To exclude the possible cytotoxic effects, all compounds were additionally tested using the ‘Cell Proliferation Reagent WST-1' (Roche Diagnostics). HEK-293 cells were treated with the same concentrations of the various substances and 18 h later WST-1 was added. Readout was conducted using the EnVision Multilabel Reader (PerkinElmer).

[2] = system: CHIKV; test: microbe, parasite or virus in culture; assay type: cell-based, chikungunya virus; details: HEK-293 cells pretreated with dilutions of each drug, CHIKV-GFP, 18 h p.i.
[3] = system: CHIKV; assay type: cell-based, chikungunya virus

Work on `Cc1ccc(Nc2nccc(N(C)c3ccc4c(C)n(C)nc4c3)n2)cc1S(N)(=O)=O` [Pazopanib] yielded an IC50 ([1]; Homo sapiens, HEK293, 18 h) of 1.32 µM and an IC50 ([2]; Chikungunya virus, HEK293) of 0.13 µM.
`CCCCCCCCCCC[C@@H](C[C@@H]1OC(=O)[C@H]1CCCCCC)OC(=O)[C@H](CC(C)C)NC=O` [Orlistat] was tested, and the IC50 ([1]; Homo sapiens, HEK293, 18 h) was 8.67 µM and the IC50 ([2]; Chikungunya virus, HEK293) was 0.82 µM.
`C=CC/C=C\C/C=C\CCCCCCCc1cccc(O)c1C(=O)O` [(15:3)-Anacardic acid] showed an IC50 ([1]; HEK-293 cell viability, 18 h, * = treatment induced <50% cell death) of 2.68 µM and an IC50 [2] of 0.58 µM.
With `OCCN1CCN(CCCN2c3ccccc3Sc3ccc(Cl)cc32)CC1` [Perphenazine] the IC50 ([1]; Homo sapiens, HEK293, 18 h) was 24.2 µM and the IC50 ([2]; Chikungunya virus, HEK293) was 0.63 µM.
With `O=C1Cc2c([nH]c3ccc([N+](=O)[O-])cc23)-c2ccccc2N1` [Alsterpaullone] the IC50 ([1]; Homo sapiens, HEK293, 18 h) was 44.4 µM and the IC50 ([2]; Chikungunya virus, HEK293) was 0.002 µM.
In the case of `O=c1cc(-c2ccccc2)oc2ccc(O)cc12` [6-Hydroxyflavone], the IC50 ([1]; Homo sapiens, HEK293, 18 h) is reported as > 60 µM and the IC50 ([2]; Chikungunya virus, HEK293) is reported as 2.6 µM.
`CNC(=O)c1cc(Oc2ccc(NC(=O)Nc3ccc(Cl)c(C(F)(F)F)c3)cc2)ccn1` [Sorafenib] was tested, and the IC50 ([1]; Homo sapiens, HEK293, 18 h) was 18.2 µM and the IC50 ([2]; Chikungunya virus, HEK293) was 1.11 µM.
In the case of `COc1cc(N2CCC(N3CCN(C)CC3)CC2)ccc1Nc1ncc(Cl)c(Nc2ccccc2S(=O)(=O)C(C)C)n1` [TAE684], the IC50 ([1]; Homo sapiens, HEK293, 18 h) is reported as 2.07 µM and the IC50 ([2]; Chikungunya virus, HEK293) is reported as 0.15 µM.
With `Cc1ccc(F)c(NC(=O)Nc2ccc(-c3cccc4[nH]nc(N)c34)cc2)c1` [Linifanib] the IC50 ([1]; Homo sapiens, HEK293, 18 h) was > 60 µM and the IC50 ([2]; Chikungunya virus, HEK293) was 2.15 µM.
In the case of “s16318 (AGGCATCTTTGAGACGATT; chemistry not given here)”, the Score_si3 [3] is reported as 0.61.
“s9325 (CTTCAGTGCTGATCAGGTA; chemistry not given here)” was tested, and the Score_si4 [3] was 0.41.
In the case of “Hs_UQCRFS1_2 (CAAACATTAATGTGAAATAAA; chemistry not given here)”, the Score_si4 [3] is reported as 0.3.
Work on “s15797 (GGAATTACGGAGATATAGA; chemistry not given here)” yielded a Score_si3 [3] of 1.45.
Compound “Hs_MGC2803_2 (CGGGAACAAACTAGCCCTCAA; chemistry not given here)” has a Score_si1 [3] of 2.43.
In the case of “Hs_CLPP_1 (sense CACGATGCAGTACATCCTCAA; chemistry not given here)”, the Score_si4 [3] is reported as 0.97.
“Hs_COPS2_4 (sense ATCCATTAATTCTATTCTTGA; chemistry not given here)” showed a Score_si4 [3] of 1.19.
Work on “s18074 (CCTCGAGACTATACGGTTA; chemistry not given here) [reference compound]” yielded a Score_si4 [3] of -0.5.
Compound “s15686 (sense CCATCCACATGTACATCAA; chemistry not given here)” has a Score_si2 [3] of 1.49.
“s5569 (sense AGGCTGAAGCTAATAAGAA; chemistry not given here)” showed a Score_si3 [3] of 0.16.
“s25038 (sense GGTCTTTACTAGGTGTATT; chemistry not given here) [reference compound]” gave a Score_si4 [3] of -0.18.
With “s28379 (sense GAGTTACGATTGTACCCTA; chemistry not given here)” the Score_si3 [3] was 1.67.
Compound “Hs_PPIL2_2 (AAGGAGGAGATCCGCATTGAT; chemistry not given here)” has a Score_si1 [3] of 1.35.
“Hs_AOF2_2 (ACATCTTACCTTAGTCATCAA; chemistry not given here)” showed a Score_si4 [3] of 0.88.
With “Hs_MGC11102_1 (TAGCGTGGCTTTAAACATATA; chemistry not given here)” the Score_si2 [3] was 1.11.
“Hs_TRRAP_1 (AAGATTCGACAGCAAGTTAAA; chemistry not given here)” gave a Score_si4 [3] of 1.01.
Compound “s38699 (CCAGGAACTATGACACGTA; chemistry not given here)” has a Score_si2 [3] of 0.75.
With “Hs_SYMPK_2 (sense CAGCCTGGTGACACAGTTCAA; chemistry not given here)” the Score_si2 [3] was 1.86.
With “Hs_LIP8_2 (sense AAGCATATCTTTGAGATGGAA; chemistry not given here)” the Score_si1 [3] was 2.14.
“Hs_MAP3K14_1 (CAGGACTCACGTAGCATTAAA; chemistry not given here)” gave a Score_si2 [3] of 1.59.
“s18706 (sense GAATCTGAACGAACGATAT; chemistry not given here) [reference compound]” gave a Score_si4 [3] of -0.67.
In the case of “s15562 (sense GCTTAGAAATGGACGACGA; chemistry not given here) [reference compound]”, the Score_si3 [3] is reported as -0.27.
